Activity calls are given as the source filed them. How the calls were made is not given here.
Assay: Quorum luxo inducers, light production, v cholerae bh1651 luxod47e, confirmatory dose response (AID 624254)
Settings: V. cholerae BH1651 luxOD47E, luciferase light induction, 6 h; at 50 µM (top of the series)

| SMILES | activation (light increase) |
| --- | --- |
| Cc1ccc(C2(C)NC(=O)N(CC(=O)NCCC3=CCCCC3)C2=O)cc1 (centres undefined) | inactive |
| CN1CC(=O)N(CC(=O)Nc2ccc3c(c2)CCC3)C1=O | inactive |
| Nc1nnc(-c2ccc(Cl)cc2Cl)s1 | inactive |
| COc1ccc2nc(SC(C)C(=O)NCC(=O)Nc3ccc(F)c(F)c3F)[nH]c2c1 (centres undefined) | inactive |
| Cn1cccc1C(=O)OCc1cc(-c2ccco2)on1 | inactive |
| COc1cc(C(C)=O)ccc1OCC(=O)Nc1cc(Cl)ccc1-n1cncn1 | inactive |
| N#Cc1ccccc1NC(=O)CNc1ccccc1N1CCCCC1 | inactive |
| Cc1cccc(NS(=O)(=O)c2ccc(Oc3ccccc3)cc2)n1 | inactive |
| COc1ccccc1NC(=O)COC(=O)c1cc2c(s1)CCC2 | inactive |
| Cc1cccc(NC(=O)CSc2nc(=O)n(CCN3CCOCC3)c3c2CCCC3)c1C | inactive |
| CCOc1ccc(S(=O)(=O)Nc2ccc(C(=O)NCC(c3ccco3)N3CCCCC3)cc2)cc1 (centres undefined) | inactive |
| Cc1ccccc1-n1nnnc1-c1ccccc1 | inactive |
| CCOC(=O)c1c(NC(=O)c2cccs2)sc(C)c1CC | inactive |
| COc1ccc(/C(N)=N/OC(=O)Cc2ccccc2OC)cc1 | inactive |
| COCc1nnc(NS(=O)(=O)c2ccc(Br)cc2)s1 | inactive |
| COc1ccc(Cl)cc1NC(=O)CN(C)C(=O)CNC(=O)C12CC3CC(CC(C3)C1)C2 | inactive |
| CCOC(=O)CNc1c(-c2ccc(Cl)cc2)nc2cnccn12 | inactive |
| COc1ccc(C(=O)COC(=O)CNC(=O)c2ccc(Cl)cc2Cl)c(OC)c1 | inactive |
| CC(C)(C)c1nc(N2CCN(C(=O)c3ccco3)CC2)c2nnn(Cc3ccccc3)c2n1 | inactive |
| Cc1ccc(C(=O)OCC(=O)NC2CCCC2)cc1C | inactive |

| SMILES | activation (light increase) |
| --- | --- |
| O=C(CN1C(=O)CSC1=O)NC1CCCCC1 | inactive |
| C[C@@H]1CN([C@H](C)CO)C(=O)c2cccc(NC(=O)Nc3ccc4c(c3)OCO4)c2O[C@H]1CN(C)S(=O)(=O)c1ccccc1 | inactive |
| COc1cc(SC)ccc1C(=O)OCC(=O)NC1CCCC1 | inactive |
| Cc1ccc(C)c(N2CCN(C(c3ccc(N(C)C)cc3)c3nnnn3C(C)(C)C)CC2)c1 (centres undefined) | inactive |
| CCOC(=O)c1cnc(SCC(=O)OCC(=O)NC2CCS(=O)(=O)C2)nc1N (centres undefined) | inactive |
| Cc1ccc2occ(C(c3nnnn3Cc3ccccc3)N3CCOCC3)c(=O)c2c1 (centres undefined) | inactive |
| O=C(Nc1nnc(C2CC2)s1)c1cccc(S(=O)(=O)N2CCc3ccccc32)c1 | inactive |
| CN(c1ccccc1)S(=O)(=O)c1nnc(NC(=O)C2CCCCC2)s1 | inactive |
| CCNC(=O)OCc1cn(-c2ccccc2)nn1 | inactive |
| Cc1ccc(C)c(OCCC(=O)OCC(=O)NC2CC2)c1 | inactive |
| Cc1noc(C)c1NC(=O)Nc1cccc2c1O[C@H](CN(C)S(=O)(=O)c1cccs1)[C@H](C)CN([C@@H](C)CO)C2=O | inactive |
| CCOC(=O)Cn1nc(C)n(-c2ccc(C(C)C)cc2)c1=O | inactive |
| COc1ccc(OCc2cn3c(C)cc(C)nc3n2)cc1 | inactive |
| COc1ccc2c(c1OC)C(=O)N(c1nccs1)C2 | inactive |
| CC(=O)Nc1ccc2nc(-c3cccnc3)[nH]c2c1 | inactive |
| COc1ccc(S(=O)(=O)N2CCSC2c2ccc(N)cc2)cc1 (centres undefined) | inactive |
| CCCCCn1nc(C(=O)N(CC(C)C)c2c(N)n(CCCC)c(=O)[nH]c2=O)c2ccccc2c1=O | inactive |
| Cc1cc(C)c(S(=O)(=O)Nc2ccccn2)c(C)c1 | inactive |
| CN(C)CC(C)(C)CNC(=O)c1cc(=O)c2ccccc2o1 | inactive |

From PubChem BioAssay AID624254 (Broad Institute, 2012)
